Data as given in patent US20120264817A1, “SOLUBILIZED FORMULATION OF DOCETAXEL WITHOUT TWEEN 80” (priority 2007, published 2012).

What was measured:
[1] = docetaxel as marketed by Sanofi-Aventis; cited from earlier work
[2] = solubility studies with docetaxel in solvents/excipients; details: glycofurol, organic solvent or mixture
Excerpt: In some instances a solubilizer can provide sufficient degree of dissolution that a separate hydrotrope or other solubilization aid is not needed, but this is generally not the case (i.e. a separate hydrotrope is usually desirable). […] The concentration of drug in solubilizer varies depending on the lipophilicity of drug. […] We have conducted the solubility studies in these excipients to understand how different excipients containing different functional groups are contributing to the solubility of docetaxel. A solubilizer can also act as a hydrotrope (on dilution with infusion fluid) if it is used in the sufficiently large quantities. […] In the table below and the rest of this specification, the terms “solubilizer” and “hydrotrope” will be used with reference to concentrates (both initial and intermediate) unless specifically indicated otherwise or the context so requires.

[3] = physical stability (onset of precipitation) of initial and final dilutions of docetaxel formulations; format: physicochemical
Procedure: Observations: • 1. The concentrate turns waxy and viscous when stored at temperature below the room temperature, i.e., 22° C. To disperse this viscous mass, a large amount of WFI is needed to make the system suitable for subsequent dilution. So the first step of making a 10 mg/ml solution cannot be achieved with this liquid concentrate. • 2. To achieve a primary dilution of docetaxel of 10 mg/ml, the above concentrate was heated in a water bath to form a viscous liquid, and then diluted with 8 ml of water for injection. The primary dilution is stable for a period of not less than 8 hours, which was a stability condition stipulated in the innovators product. This solution, when further diluted with NS, achieves the targeted concentration range of 0.3-0.74 mg/ml of docetaxel in the final solution for administration. This solution is stable for a period of 24 hours as opposed to the stability of 4 hours with innovators product. In this example, we have achieved the target concentration of docetaxel for administration without the presence of polysorbate 80. • 3.
The concentrate is liquid at room temperature and turned waxy only when stored at 5° C. or below, but turned back to free flowing liquid in 5 minutes when kept at room temperature. • 2. During the initial dilution step to get 10 mg/ml, the contents of the vial turned into a thixotropic liquid within the vial. […]

solubility [2]: ~200 mg/mL
behaviour on dilution to administration concentrations ([3]; about 10 mg/ml solution in glycofurol, diluted with IV fluids): will not precipitate out
behaviour on dilution to administration concentrations ([3]; about 200 mg/ml liquid concentrate in glycofurol, diluted with water): precipitates out
Compound: CC(=O)O[C@@]12CO[C@@H]1C[C@H](O)[C@@]1(C)C(=O)[C@H](O)C3=C(C)[C@@H](OC(=O)[C@H](O)[C@@H](NC(=O)OC(C)(C)C)c4ccccc4)C[C@@](O)([C@@H](OC(=O)c4ccccc4)[C@H]21)C3(C)C [docetaxel, (2R,3S)—N-carboxy-3-phenylisoserine, N-tert-butyl ester, 13-ester with 5beta-20-epoxy-1,2α,4,7β,10β,13α-hexahyciroxytax-11-en-9-one 4-acetate 2-benzoate, trihydrate]
lipophilicity [1]: highly lipophilic
solubility in water [1]: practically insoluble in water
